Values of other authors, collected in paper PMC7751758, “Repurposing Sigma-1 Receptor Ligands for COVID-19 Therapy?” (Frontiers in Pharmacology, 2020).
Where “and” joins values, the source holds several entries; their conditions need not be identical. Equal entries are not always repeated. Entries after “also recorded” stand apart in the source; their conditions may differ. Where two headings read alike, the source gives them in different places.

Columns and labels:
EBOV [1] = system: EBOV
Sigma-1 receptor = conditions: for IC50: read-out: Sigma-1 receptor affinity IC50; for Ki: read-out: Sigma-1 receptor affinity Ki
EBOV [2] = conditions: mouse, in vivo
EBV = conditions: infection of B lymphocytes
[3] = system: HCV infection of human hepatocarcinoma Huh-7 cells; conditions: absence of cytotoxicity at low micromolar and submicromolar concentrations; ref Gastaminza et al., 2010
[4] = system: HCV-induced cytopathic effect on the engineered cell line n4mBid; conditions: leads of the cell protection screen; ref Chockalingam et al., 2010
[5] = associated with bioaccumulation of the drugs; ref Palmeira et al., 2020
COVID-19 = conditions: for decreasing the likelihood of death or speeding recovery: large, randomized clinical trial in hospitalized patients, ref FDA communication
CHIKV = conditions: cytopathic effect induced by Chikungunya virus and other alphaviruses (Semliki Forest virus and Sindbis virus)
HCoV-229E = conditions: replication in cell culture
H5N1 virus = conditions: mouse, in vivo
[6] = system: H5N1 virus in A549 lung epithelial cells
[7] = system: SARS-CoV-2 in Huh-7 cells; conditions: for antiviral potency: devoid of cytotoxicity, ref Mirabelli et al., 2020
Huh-7 cells = conditions: ref Mirabelli et al., 2020; read-out: CC50 (cell toxicity)
[8] = system: SARS-CoV-2 in iPSC-derived alveolar epithelial type 2 cells (iAEC2s); conditions: ref Mirabelli et al., 2020, read-out: IC50 against SARS-CoV-2
HCV infection = conditions: without significantly reducing cell biomass; ref Mingorance et al., 2014
Ebola = conditions: in vivo
HCV = conditions: entry and assembly steps in Huh-7.5.1 cells, ref Cheng et al., 2013
HCoV-OC43 [9] = conditions: mothers treated daily with chloroquine (15 mg/kg); ref Keyaerts et al., 2009
EBOV [10] = conditions: guinea pig, in vivo
HCoV-OC43 [11] = conditions: replication in HRT-18 cells, ref Keyaerts et al., 2009
HIV = conditions: exposure to cocaine, by activating Sig-1R; ref Roth et al., 2005

CC(C)COCC(CN(Cc1ccccc1)c1ccccc1)N1CCCC1 (centres unmarked) [Bepridil]
Antiviral activity: Virus (EBOV [1]): active
IC50 (Sigma-1 receptor): 365 nM
protection in a murine EBOV infection model (EBOV [2]): protective ability

CN1CCN(CCCN2c3ccccc3Sc3ccc(C(F)(F)F)cc32)CC1 [Trifluoperazine]
Antiviral activity: Virus (EBV; ref Nemerow and Cooper, 1984, listed as trifluoperazine): inhibit infection of B lymphocytes
reduction in HCV infection of Huh-7 cells, as compared to the vehicle DMSO control [3]: > 85%
alleviation of HCV-induced cytopathic effect (n4mBid cell viability relative to untreated cells) [4]: increase n4mBid cell viability

CN1CCN(CCCN2c3ccccc3Sc3ccc(Cl)cc32)CC1 [Prochlorperazine]
Antiviral activity: Virus (EBOV [1]): active
Antiviral activity: Virus (EBV; ref Nemerow and Cooper, 1984): inhibit infection of B lymphocytes
reduction in HCV infection of Huh-7 cells, as compared to the vehicle DMSO control [3]: > 85%
cellular toxicity (Ebola virus (EBOV)): < 30%
viral inhibition (Ebola virus (EBOV)): > 50%

CCN(CCO)CCCC(C)Nc1ccnc2cc(Cl)ccc12 (centres unmarked) [Hydroxychloroquine]
IC50 (Sigma-1 receptor): 2120 nM
side effects [5]: serious retinopathies and cardiopathies
Antiviral activity: Virus (MERS-CoV): in vitro activity
Antiviral activity: Virus (SARS-CoV): in vitro activity
efficacy in COVID-19 patients (COVID-19; first clinical studies, ref Geleris et al., 2020, Mitjà et al., Roustit et al.): do not support efficacy
adverse drug reactions in patients with COVID-19 (COVID-19; human, in vivo): serious adverse drug reactions
decreasing the likelihood of death or speeding recovery (COVID-19; 2020): no benefit

CCSc1ccc2c(c1)N(CCCN1CCN(C)CC1)c1ccccc1S2 [Thiethylperazine]
IC50 (Sigma-1 receptor): 528 nM
Antiviral activity: Virus (MERS-CoV): in vitro activity
Antiviral activity: Virus (SARS-CoV): in vitro activity; also recorded: SARS-CoV SARS-CoV-2
Antiviral activity: Virus (CHIKV; ref Pohjala et al., 2011, listed as thiethylperazine): inhibition of the cytopathic effect

CN(C)C(=O)C(CCN1CCC(O)(c2ccc(Cl)cc2)CC1)(c1ccccc1)c1ccccc1 [Loperamide]
Antiviral activity: Virus (SARS-CoV): inhibited the replication
Antiviral activity: Virus (HCoV-229E; ref de Wilde et al., 2014, listed as loperamide): inhibited the replication

CN(C)CCC=C1c2ccccc2CCc2ccccc21 [Amitriptyline]
IC50 (Sigma-1 receptor): 216 nM and 300 nM
Ki (Sigma-1 receptor): 287 nM
infiltrating cell count (H5N1 virus): reduced
lung edema and survival (H5N1 virus): improved
lung injury (H5N1 virus): decreased
viability of A549 cells infected with H5N1 [6]: increased viability
alleviation of HCV-induced cytopathic effect (n4mBid cell viability relative to untreated cells) [4]: increase n4mBid cell viability; also recorded: inhibit the HCV-induced cytopathic effect

O=C(CCCN1CCC(O)(c2ccc(Cl)cc2)CC1)c1ccc(F)cc1 [Haloperidol]
Antiviral activity: Virus (EBV; ref Nemerow and Cooper, 1984, listed as haloperidol): inhibit infection of B lymphocytes
reduction in HCV infection of Huh-7 cells, as compared to the vehicle DMSO control [3]: > 85%

COc1ccc(CCN(C)CCCC(C#N)(c2ccc(OC)c(OC)c2)C(C)C)cc1OC (centres unmarked) [Verapamil]
antiviral potency [7]: below 1 µM

Cc1cc(OCCN2CCOCC2)nn1-c1ccc2ccccc2c1 [E-52862 (S1RA)]
CC50 (Huh-7 cells): > 5000 nM
IC50 [8]: 1000 nM
antiviral potency [7]: below 1 µM
IC50 ([7]; ref Mirabelli et al., 2020, read-out: IC50 against SARS-CoV-2): 222 nM

OCCN1CCN(CCCN2c3ccccc3Sc3ccc(Cl)cc32)CC1 [Perphenazine]
reduction of HCV infection (HCV infection): more than one order of magnitude
Antiviral activity: Virus (CHIKV; ref Pohjala et al., 2011, listed as perphenazine): inhibition of the cytopathic effect
alleviation of HCV-induced cytopathic effect (n4mBid cell viability relative to untreated cells) [4]: increase n4mBid cell viability

CN(C)CCC=C1c2ccccc2COc2ccccc21 [Doxepin]
reduction in HCV infection of Huh-7 cells, as compared to the vehicle DMSO control [3]: > 85%
Antiviral activity: Virus (CHIKV; ref Pohjala et al., 2011, listed as doxepin): inhibition of the cytopathic effect

CN[C@H]1CC[C@@H](c2ccc(Cl)c(Cl)c2)c2ccccc21 [Sertraline]
Antiviral activity: Virus (EBOV [1]): active
protection in a murine EBOV infection model (EBOV [2]): protective ability

CCCCc1oc2ccccc2c1C(=O)c1cc(I)c(OCCN(CC)CC)c(I)c1 [Amiodarone]
case fatality rate compared with local historical data (Ebola): decrease in case fatality rate
Antiviral activity: Virus (SARS-CoV): inhibit the spreading in vitro of SARS-CoV
survival of infected mice (EBOV [2]): increased survival
outcome of a patient with COVID-19-related respiratory failure (COVID-19; case report, off-label short therapy 5 days with supportive measures, ref Castaldo et al., 2020): recovered
viral inhibition (Ebola virus (EBOV)): > 50%
antiviral potency [7]: below 1 µM
Antiviral activity: Virus (HCV): inhibit

CC(C(O)c1ccc(O)cc1)N1CCC(Cc2ccccc2)CC1 (centres unmarked) [Ifenprodil]
IC50 (Sigma-1 receptor): 5.5 nM
leukocyte infiltration and lung injury (H5N1 virus): markedly decreased
survival (H5N1 virus): improved survival
cell viability in vitro [6]: increased cell viability
alleviation of HCV-induced cytopathic effect (n4mBid cell viability relative to untreated cells) [4]: increase n4mBid cell viability; also recorded: inhibit the HCV-induced cytopathic effect

CC(CN1c2ccccc2Sc2ccccc21)N(C)C (centres unmarked) [Promethazine]
IC50 (Sigma-1 receptor): 857 nM
Antiviral activity: Virus (EBV; ref Nemerow and Cooper, 1984, listed as promethazine): inhibit infection of B lymphocytes
Antiviral activity: Virus (MERS-CoV): in vitro activity
Antiviral activity: Virus (SARS-CoV): in vitro activity; also recorded: SARS-CoV SARS-CoV-2

CN1CCC(CN2c3ccccc3Sc3ccccc32)C1 (centres unmarked) [Methdilazine]
IC50 (Sigma-1 receptor): 167 nM
Antiviral activity: Virus (CHIKV; ref Pohjala et al., 2011, listed as methdilazine): inhibition of the cytopathic effect

CN(C)CCCN1c2ccccc2Sc2ccc(Cl)cc21 [Chlorpromazine]
Ki (Sigma-1 receptor): 146 nM
Antiviral activity: Virus (EBV; ref Nemerow and Cooper, 1984, listed as chlorpromazine): inhibit infection of B lymphocytes
Antiviral activity: Virus (MERS-CoV): in vitro activity
Antiviral activity: Virus (SARS-CoV): inhibited the replication; also recorded: in vitro activity; also recorded: SARS-CoVSARS-CoV-2
reduction of HCV infection (HCV infection): more than one order of magnitude
Antiviral activity: Virus (HCoV-229E; ref de Wilde et al., 2014, listed as chlorpromazine): inhibited the replication
Antiviral activity: Virus (CHIKV; ref Pohjala et al., 2011, listed as chlorpromazine): inhibition of the cytopathic effect

CSc1ccc2c(c1)N(CCC1CCCCN1C)c1ccccc1S2 (centres unmarked) [Thioridazine]
Antiviral activity: Virus (EBOV [1]): active
Antiviral activity: Virus (CHIKV; ref Pohjala et al., 2011, listed as thioridazine): inhibition of the cytopathic effect

CCN(CC)CCCC(C)Nc1ccnc2cc(Cl)ccc12 (centres unmarked) [Chloroquine]
IC50 (Sigma-1 receptor): 2300 nM
Ki (Sigma-1 receptor): 109 nM
side effects [5]: serious retinopathies and cardiopathies
HCoV-OC43-induced death in newborn mice (HCoV-OC43 [9]): prevented HCoV-OC43-induced death
Antiviral activity: Virus (MERS-CoV): in vitro activity
survival (EBOV [10]): none of the tested doses increased survival
Antiviral activity: Virus (SARS-CoV): inhibited the replication of SARS-CoV; also recorded: in vitro activity
survival of infected mice (EBOV [2]): increased survival
Antiviral activity: Virus (HCoV-OC43 [11]): inhibited HCoV-OC43 replication
decreasing the likelihood of death or speeding recovery (COVID-19; 2020): no benefit
cellular toxicity (Ebola virus (EBOV)): < 30%
viral inhibition (Ebola virus (EBOV)): > 50%
Antiviral activity: Virus (HCoV-229E; ref de Wilde et al., 2014, listed as chloroquine): inhibited the replication
Antiviral activity: Virus (CHIKV; ref Pohjala et al., 2011, listed as chloroquine): inhibition of the cytopathic effect

COC(=O)[C@H]1[C@@H](OC(=O)c2ccccc2)C[C@@H]2CC[C@H]1N2C [cocaine]
HIV infection (HIV): enhance HIV infection

CC[C@H]1OC(=O)[C@H](C)[C@@H](O[C@H]2C[C@@](C)(OC)[C@@H](O)[C@H](C)O2)[C@H](C)[C@@H](O[C@@H]2O[C@H](C)C[C@H](N(C)C)[C@H]2O)[C@](C)(O)C[C@@H](C)CN(C)[C@H](C)[C@@H](O)[C@]1(C)O [azithromycin]
survival (EBOV [10]): none of the tested doses increased survival
survival of infected mice (EBOV [2]): increased survival

Cc1cccc(C)c1OCC(=O)N[C@@H](Cc1ccccc1)[C@@H](O)C[C@H](Cc1ccccc1)NC(=O)[C@H](C(C)C)N1CCCNC1=O [lopinavir]
Antiviral activity: Virus (SARS-CoV): inhibited the replication
Antiviral activity: Virus (HCoV-229E; ref de Wilde et al., 2014): inhibited the replication
